Measured values reported in patent publication US9328130B2, “Method of treating organism by biologically active compounds specifically delivered into mitochondria, pharmaceutical composition required for the use of the method and a compound applicable for this purpose” (MITOTECH S.A., priority 2005, dated 2016).

Legend:
[1] = system: cells in culture; conditions: cited from earlier work
[2] = system: OXYS rats; assay: Cataract and macular dystrophy in senescence-accelerated OXYS rats; type: in vivo, rat; conditions: for 2nd stage of cataract / 2nd stage of macular degeneration / changes in the macular area of the retina: OXYS rats age 3 months after oral course; for eyes with lens changes: OXYS rats age 3 months after oral course from 1.5 to 3 months
Procedure: The animals were housed in cages (45*35*35 cm) and kept under standard laboratory conditions (at 22±1° C., 60% relative humidity, and natural light), provided with a standard rodent diet (PK-120-1, Ltd. ‘Laboratorsnab’, Russia), and given water ad libitum. At the age of 1.5 months after preliminary pupil dilation with 1% tropicamide ophthalmic the rats were conducted through ophthalmoscopic examination using direct ophthalmoscop “Betta”, Germany. […] We use Vitamin E for a comparison with test antioxidants. Animals received the compounds on a small piece of dried bread before a regular meal, and the control group of animals received the same piece of bread without any compound. After completing the course of antioxidants the animals were retested with ophthalmoscope. To avoid human factor in the evaluation of compound effects the researcher who conducted the ophthalmoscopic examination was not told which of the animals received antioxidants. The lens state was evaluated according to the classification system accepted in clinical practice with grades ranging from 0 to 3: score 0—the lens is clear; score 1—spotted weak cloudiness; score 2—multiple spots of cloudiness and score 3—intense cloudiness of the lens core and nucleus.

[3] = Accumulation of MitoQ in tissues when fed to animals (prior art); type: in vivo; conditions: feeding to animals
Procedure: It should also be noted that despite some promising observations concerning the MitoQ action, there are several results and calculations that cast doubt on the possibility of practical application of this compound. For example, it was shown in experiments with cell culture that MitoQ provides its antioxidant and anti-apoptotic action at concentration about 1 μM in the medium. It means that MitoQ concentrations inside the mitochondria should be 1 mM provided that membrane potential is about 180 mV. On the other hand, it was shown by Smith R A, Porteous C M, Gane A M, Murphy M P, Proc Natl Acad Sci USA, 2003, 100(9):5407-12 when feeding MitoQ to animals, the accumulation of MitoQ in the most oxidative stress sensitive tissues (heart and brain) amounts up to 100 pmoles/gram, which corresponds to the MitoQ concentration inside heart mitochondria equal to 100 nM. This is more than 1000 times lower than the concentration shown to be efficient in the cell culture experiments. Formally, the concentration can be raised by the increase of amounts of MitoQ fed to animals, but this is, in fact, not possible due to the toxicity of the compound.

[4] = system: Hela cells
[5] = system: cell culture; conditions: cited from earlier work
[6] = feeding to animals; cited from earlier work
[7] = system: Yarrowia lipolytica; assay: Protection of yeast cells from death caused by hydrogen peroxide; type: cell-based; conditions: FIG. 14; α-tocopherol 25 μM
[8] = system: Hela cells; assay: Transmission of apoptotic signal between inducer and recipient slides; type: cell-based, human; conditions: 2500 E/ml added to medium for joint incubation
Procedure: HeLa cells were used in these experiments. Cells grown on a glass slide were treated with different apoptosis-inducing agents (tumor necrosis factor (TNF), staurosporine, H2O2) for 3 h. Then the glass slide with cells (inducer) was washed to remove these reagents and placed into Petri plate to come into contact with glass slide (recipient) with cells grown in the absence of any apoptosis-inducing agent. After 16-18 h of subsequent growth and staining the cells with Hoechst 33342 as described above, apoptosis at both glass slides was analyzed.
Thus the main mediator of apoptosis signal was H2O2.

Cc1c(C)c2c(c(C)c1O)CCC(C)(CC[P+](c1ccccc1)(c1ccccc1)c1ccccc1)O2 (stereo not drawn) [MitoVitE]
concentration with no toxic effect on cells in culture [1]: 10 µM | prevention of apoptosis in cultured cells ([1]; effect retained in the presence of uncoupler FCCP): able to prevent apoptosis in cultured cells

[Br-].[K+] [KBr]
2nd stage of cataract [2]: 57% | 2nd stage of macular degeneration [2]: 13% | changes in the macular area of the retina [2]: 87% | eyes with lens changes [2]: 93%

COC1=C(OC)C(=O)C(CCCCCCCCCC[P+](c2ccccc2)(c2ccccc2)c2ccccc2)=C(C)C1=O [MitoQ]
corresponding concentration inside heart mitochondria [3]: 100 nM | LD50 in the presence of hydrogen peroxide ([4]; 100 μM hydrogen peroxide): 4 µM | LD50 (concentrations at which 50% cells die) ([4]; 2 h of incubation, no hydrogen peroxide): 7 µM | concentration in the medium giving antioxidant and anti-apoptotic action [5]: about 1 μM | accumulation in heart and brain [6]: up to 100 pmoles/gram

C[C@@H]1C[C@@H]([C@H](O)CC2CC(=O)NC(=O)C2)C(=O)[C@@H](C)C1 [cycloheximide D, reference compound]
effect on survival compared among protectants [7]: very similar

Cc1c(C)c2c(c(C)c1O)CC[C@@](C)(CCC[C@H](C)CCC[C@H](C)CCCC(C)C)O2 [tocopherol, α-tocopherol, reference compound]
effect on survival compared among protectants [7]: very similar

CC(=O)Oc1c(C)c(C)c2c(c1C)CCC(C)(CCC[C@H](C)CCC[C@H](C)CCCC(C)C)O2 (stereo partly drawn) [vitamin E, alfa-tocopherol acetate]
2nd stage of cataract [2]: 12% | 2nd stage of macular degeneration [2]: 8% | changes in the macular area of the retina [2]: 54% | eyes with lens changes [2]: 58%

B1: catalase: catalase (2500 E/ml) added into the medium for joint incubation (protein, UniProt P00432 2-527, looked up)
Catalase: ADNRDPASDQMKHWKEQRAAQKPDVLTTGGGNPVGDKLNSLTVGPRGPLLVQDVVFTDEMAHFDRERIPERVVHAKGAGAFGYFEVTHDITRYSKAKVFEHIGKRTPIAVRFSTVAGESGSADTVRDPRGFAVKFYTEDGNWDLVGNNTPIFFIRDALLFPSFIHSQKRNPQTHLKDPDMVWDFWSLRPESLHQVSFLFSDRGIPDGHRHMNGYGSHTFKLVNANGEAVYCKFHYKTDQGIKNLSVEDAARLAHEDPDYGLRDLFNAIATGNYPSWTLYIQVMTFSEAEIFPFNPFDLTKVWPHGDYPLIPVGKLVLNRNPVNYFAEVEQLAFDPSNMPPGIEPSPDKMLQGRLFAYPDTHRHRLGPNYLQIPVNCPYRARVANYQRDGPMCMMDNQGGAPNYYPNSFSAPEHQPSALEHRTHFSGDVQRFNSANDDNVTQVRTFYLKVLNEEQRKRLCENIAGHLKDAQLFIQKKAVKNFSDVHPEYGSRIQALLDKYNEEKPKNAVHTYVQHGSHLSAREKANL
apoptosis of recipient cells [8]: prevented apoptosis of recipient cells
